{"source": "patent US9012431B2", "about": "“Boron-containing small molecules as anti-inflammatory agents” (Anacor Pharmaceuticals, Inc., priority 2008, dated 2015)", "key": {"PDE2": {"target": "T1, PDE2 (Homo sapiens, UniProt O00408)", "T1 construct": "made in house; host or cells: baculoviral expression system", "T1 sequence (O00408 whole entry)": "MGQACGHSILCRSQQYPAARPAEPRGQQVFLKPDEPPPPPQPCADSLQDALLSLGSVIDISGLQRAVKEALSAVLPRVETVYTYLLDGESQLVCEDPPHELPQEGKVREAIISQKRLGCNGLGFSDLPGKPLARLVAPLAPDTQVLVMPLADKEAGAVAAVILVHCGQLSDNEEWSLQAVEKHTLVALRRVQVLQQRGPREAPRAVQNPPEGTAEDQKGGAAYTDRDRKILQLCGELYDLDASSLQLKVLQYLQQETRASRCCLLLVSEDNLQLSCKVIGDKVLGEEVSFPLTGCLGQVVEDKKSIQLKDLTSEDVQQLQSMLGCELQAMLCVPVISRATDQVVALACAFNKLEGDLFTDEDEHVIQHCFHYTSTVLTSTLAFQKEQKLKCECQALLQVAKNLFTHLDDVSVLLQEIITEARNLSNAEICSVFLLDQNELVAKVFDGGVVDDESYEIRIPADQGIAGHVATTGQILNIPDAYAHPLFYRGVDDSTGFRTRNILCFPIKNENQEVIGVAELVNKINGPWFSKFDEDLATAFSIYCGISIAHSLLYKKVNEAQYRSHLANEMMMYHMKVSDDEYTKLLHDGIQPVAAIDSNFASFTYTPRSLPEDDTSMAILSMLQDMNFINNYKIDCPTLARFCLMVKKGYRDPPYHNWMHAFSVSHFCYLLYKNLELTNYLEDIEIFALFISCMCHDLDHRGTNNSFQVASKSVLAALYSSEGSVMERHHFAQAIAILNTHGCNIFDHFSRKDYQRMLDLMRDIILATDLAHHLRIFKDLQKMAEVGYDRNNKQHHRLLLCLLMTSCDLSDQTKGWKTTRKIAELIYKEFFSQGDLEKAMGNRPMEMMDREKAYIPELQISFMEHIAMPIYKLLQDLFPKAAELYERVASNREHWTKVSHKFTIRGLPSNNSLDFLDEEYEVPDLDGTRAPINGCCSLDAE", "experiment": "PDE2 inhibition", "assay_type": "biochemical"}, "PDE3 Cat": {"test_system": "T2, PDE3 Cat", "T2 construct": "Recombinant human PDE enzymes were expressed in a baculoviral system.; PDE isoforms tested include", "experiment": "PDE3 inhibition", "assay_type": "biochemical"}, "[1]": {"test_system": "IL-6 production by human PBMCs", "experiment": "IL-6 production by LPS- or PHA-stimulated PBMCs", "assay_type": "cell-based"}, "[2]": {"test_system": "IL-1β production by human PBMCs", "experiment": "IL-1β production by LPS- or PHA-stimulated PBMCs", "assay_type": "cell-based"}, "[3]": {"test_system": "T3, PDE4 partially purified from human U-937 myeloid leukemia cells", "T3 construct": "PDE4 partially purified from human U-937 myeloid leukemia cells was used", "experiment": "PDE4 Assay (enzyme from U-937 cells, [3H]cAMP)", "assay_type": "biochemical", "settings": "PDE4 from U-937 cells, Tris buffer pH 7.5, 20 minutes at 25° C."}, "all four PDE4 isoforms": {"test_system": "all four PDE4 isoforms", "experiment": "PDE4 isoform inhibition", "assay_type": "biochemical"}, "female CBA/J mice": {"test_system": "female CBA/J mice", "experiment": "Local lymph node assay (hypersensitivity response)", "assay_type": "in vivo"}, "shrews (Suncus murinus)": {"test_system": "shrews (Suncus murinus)", "settings": "shrew (Suncus murinus), in vivo, po"}, "hERG-channel": {"target": "hERG-channel (Homo sapiens, UniProt Q12809)", "sequence (Q12809 whole entry)": "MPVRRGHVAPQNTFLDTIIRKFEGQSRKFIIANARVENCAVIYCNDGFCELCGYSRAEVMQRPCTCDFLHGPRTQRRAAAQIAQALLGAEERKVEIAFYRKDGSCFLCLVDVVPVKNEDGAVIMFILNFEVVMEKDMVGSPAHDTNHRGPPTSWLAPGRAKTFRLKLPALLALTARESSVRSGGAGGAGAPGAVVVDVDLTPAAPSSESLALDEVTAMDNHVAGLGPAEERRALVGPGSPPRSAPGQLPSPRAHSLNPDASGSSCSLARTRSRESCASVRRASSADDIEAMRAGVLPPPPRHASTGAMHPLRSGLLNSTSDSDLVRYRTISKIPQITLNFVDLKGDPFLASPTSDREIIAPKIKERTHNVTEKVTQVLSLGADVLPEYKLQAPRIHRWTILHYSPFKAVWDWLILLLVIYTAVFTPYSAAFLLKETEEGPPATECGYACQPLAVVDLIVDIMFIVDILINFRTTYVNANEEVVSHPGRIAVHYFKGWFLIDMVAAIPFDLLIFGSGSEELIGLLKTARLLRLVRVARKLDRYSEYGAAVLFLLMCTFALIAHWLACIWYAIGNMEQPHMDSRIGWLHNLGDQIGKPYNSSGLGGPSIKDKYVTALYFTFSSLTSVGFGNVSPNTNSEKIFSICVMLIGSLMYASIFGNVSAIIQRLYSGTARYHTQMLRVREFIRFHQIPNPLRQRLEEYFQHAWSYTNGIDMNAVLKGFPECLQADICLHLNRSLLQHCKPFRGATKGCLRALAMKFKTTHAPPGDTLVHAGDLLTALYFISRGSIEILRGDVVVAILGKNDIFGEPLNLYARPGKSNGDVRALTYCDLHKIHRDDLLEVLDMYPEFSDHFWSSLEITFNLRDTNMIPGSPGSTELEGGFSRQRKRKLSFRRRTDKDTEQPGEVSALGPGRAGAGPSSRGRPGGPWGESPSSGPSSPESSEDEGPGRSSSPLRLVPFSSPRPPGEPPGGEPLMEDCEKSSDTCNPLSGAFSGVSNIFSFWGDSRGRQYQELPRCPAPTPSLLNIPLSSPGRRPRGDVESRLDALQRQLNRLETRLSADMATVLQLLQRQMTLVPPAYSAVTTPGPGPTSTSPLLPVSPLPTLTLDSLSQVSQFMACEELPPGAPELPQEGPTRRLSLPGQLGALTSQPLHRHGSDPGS", "experiment": "hERG-channel block", "assay_type": "biochemical", "settings": "C17 at 1 μM"}, "MCP-1 and PGE2": {"test_system": "MCP-1 and PGE2", "experiment": "Release of chemokine MCP-1 and PGE2", "assay_type": "cell-based", "description": "This activity is explained in part by the inhibition of phosphodiesterase-4 (PDE-4)."}, "[4]": {"test_system": "IL-23 production from human THP-1 macrophages", "experiment": "IL-23 production by THP-1 cells stimulated with IFN-g and LPS", "assay_type": "cell-based"}, "TNF-α": {"test_system": "TNF-α", "experiment": "Cytokine assay, TNF-α release from PBMC", "assay_type": "cell-based", "settings": "Homo sapiens, PBMC, 24 h, 1 μg/mL LPS, supernatant at 24 hours", "outline": "(§1)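 Inhibition of cytokine release was assessed in thawed human PBMC cultured in RPMI 1640 plus 10% FBS, with compound tested at four concentrations from 0.01 to 10 μM.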"}, "IL-10": {"test_system": "IL-10", "experiment": "Cytokine assay, IL-10 release from PBMC", "assay_type": "cell-based", "settings": "human PBMC, 20 ug/mL PHA, supernatant at 48 hours", "outline": "as §1"}, "PDE4Cat": {"test_system": "T4, PDE4Cat", "T4 construct": "Recombinant human PDE enzymes were expressed in a baculoviral system.", "experiment": "PDE4Cat inhibition", "assay_type": "biochemical", "settings": "standard: Rolipram"}, "IL-5": {"test_system": "IL-5", "experiment": "Cytokine assay, IL-5 release from PBMC", "assay_type": "cell-based", "settings": "human PBMC, 20 ug/mL PHA, supernatant at 48 hours", "outline": "as §1"}, "PDE5": {"target": "PDE5 (Homo sapiens, UniProt O76074)", "experiment": "PDE5 inhibition", "assay_type": "biochemical"}, "IL-2": {"test_system": "IL-2", "experiment": "Cytokine assay, IL-2 release from PBMC", "assay_type": "cell-based", "settings": "human PBMC, 20 ug/mL PHA, supernatant at 24 hours", "outline": "as §1"}, "[5]": {"test_system": "IL-10 production by human PBMCs", "experiment": "IL-10 production by LPS- or PHA-stimulated PBMCs", "assay_type": "cell-based"}, "[6]": {"test_system": "IL-2 secretion from PBMCs", "experiment": "IL-2 secretion from PBMCs stimulated with PHA", "assay_type": "cell-based, human", "settings": "PBMC", "description": "(§2) Compounds were screened by a biochemical assay against PDE4 enzyme and cell-based cytokine release assays using PBMCs stimulated by LPS or phytohemagglutinin (PHA)."}, "Sprague-Dawley rats": {"test_system": "Sprague-Dawley rats", "settings": "oral 30, 100, and 300 mg/kg/day, 14 consecutive days"}, "IFN-γ": {"test_system": "IFN-γ", "experiment": "Cytokine assay, IFN-γ release from PBMC", "assay_type": "cell-based", "settings": "human PBMC, 20 ug/mL PHA, supernatant at 24 hours", "outline": "as §1"}, "[7]": {"test_system": "TNF-α secretion from peripheral blood mononuclear cells (PBMCs)", "experiment": "TNF-α secretion from PBMCs stimulated by LPS", "assay_type": "cell-based, human", "settings": "PBMC", "description": "as §2"}, "PDE1A3": {"target": "T5, PDE1A3 (Homo sapiens, UniProt P54750)", "T5 construct": "made in house; host or cells: baculoviral expression system", "T5 sequence (P54750 whole entry)": "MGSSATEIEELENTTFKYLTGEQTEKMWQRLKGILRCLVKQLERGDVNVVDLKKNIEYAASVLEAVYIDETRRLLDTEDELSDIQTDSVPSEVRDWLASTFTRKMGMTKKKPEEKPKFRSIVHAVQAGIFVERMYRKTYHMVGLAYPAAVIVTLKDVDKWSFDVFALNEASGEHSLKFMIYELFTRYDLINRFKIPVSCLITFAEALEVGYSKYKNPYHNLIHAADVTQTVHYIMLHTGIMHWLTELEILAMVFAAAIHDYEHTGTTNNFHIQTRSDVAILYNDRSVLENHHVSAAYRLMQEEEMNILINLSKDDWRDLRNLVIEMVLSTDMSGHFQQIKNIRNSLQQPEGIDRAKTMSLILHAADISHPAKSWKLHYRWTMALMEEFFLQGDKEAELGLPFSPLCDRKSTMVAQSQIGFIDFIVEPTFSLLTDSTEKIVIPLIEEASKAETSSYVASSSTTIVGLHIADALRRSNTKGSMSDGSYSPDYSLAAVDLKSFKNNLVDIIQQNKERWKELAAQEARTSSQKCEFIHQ", "experiment": "PDE1 inhibition", "assay_type": "biochemical"}, "[8]": {"test_system": "T6, phosphodiesterase 4 (PDE4) enzyme derived from human U937 cells", "T6 construct": "PDE4 IC50; other: biochemical assay, PDE4 enzyme derived from human U937 cells; other: PDE4 in human U937 cells", "experiment": "PDE4 enzyme activity (enzyme derived from human U937 cells)", "assay_type": "biochemical", "description": "(§3) The structure-activity relationships of novel boron-containing anti-inflammatory agents was investigated.\nas §2"}, "[9]": {"test_system": "phosphodiesterase 4 (PDE4) enzyme derived from human U937 cells", "experiment": "PDE4 enzyme activity (enzyme derived from human U937 cells)", "assay_type": "biochemical", "settings": "versus substrate cAMP", "description": "as §3, §2"}}, "note": "Where two headings read alike, the source gives them in different places."}
{"compound": "N#Cc1ccc(Oc2ccc3c(c2)COB3O)cc1", "note": "[C17, 5-(4-cyanophenoxy)-1-hydroxy-1,3-dihydro-2,1-benzoxaborole]", "values": [{"measurement": "inhibition of PDE2", "setting": "PDE2", "value": "does not significantly inhibit"}, {"measurement": "inhibition of PDE3", "setting": "PDE3 Cat", "value": "does not significantly inhibit"}, {"measurement": "IC50", "setting": "PDE3 Cat; standard: Cilostazol", "value": "1 to 10", "unit": "µM"}, {"measurement": "IC50", "setting": "[1]; PBMC, LPS- and PHA-induced cytokine production by human PBMCs, read-out: IC50 IL-6 (pro-inflammatory cytokines)", "value": "> 30", "unit": "µM"}, {"measurement": "effect on IL-6", "setting": "[1]; PBMCs", "value": "not affected"}, {"measurement": "IC50", "setting": "[2]; PBMC, LPS- and PHA-induced cytokine production by human PBMCs, read-out: IC50 IL-1β (pro-inflammatory cytokines)", "value": "> 30", "unit": "µM"}, {"measurement": "effect on IL-1", "setting": "[2]; PBMCs", "value": "not affected"}, {"measurement": "IC50", "setting": "[3]", "value": "< 1", "unit": "µM"}, {"measurement": "inhibition of PDE4 isoforms", "setting": "all four PDE4 isoforms", "value": "inhibiting all four PDE4 isoforms equally"}, {"measurement": "skin sensitizing activity", "setting": "female CBA/J mice; mouse, in vivo", "value": "not considered to have skin sensitizing activity"}, {"measurement": "stimulation index", "setting": "female CBA/J mice; topical 1%, 5%, and 10% solution in acetone/ethanol (50:50, v/v)", "value": "< 3"}, {"measurement": "no-observed-effect level (NOEL), emesis", "setting": "shrews (Suncus murinus)", "value": 10, "unit": "mg/kg"}, {"measurement": "hERG-channel blocker classification", "setting": "hERG-channel", "value": "low potency hERG-channel blocker"}, {"measurement": "release of the chemokine MCP-1 and PGE2", "setting": "MCP-1 and PGE2", "value": "inhibits the release"}, {"measurement": "IC50", "setting": "[4]; human THP-1 macrophages, read-out: IL-23 production IC50", "value": 2.25, "unit": "µM"}, {"measurement": "IC50", "setting": "[4]; human THP-1 monocytic cells stimulated with IFN-g and LPS, read-out: IC50 IL-23*", "value": "1 to 10", "unit": "µM"}, {"measurement": "IC50", "setting": "TNF-α", "value": "< 1", "unit": "µM"}, {"measurement": "IC50", "setting": "IL-10", "value": "4 to 10", "unit": "µM"}, {"measurement": "IC50", "setting": "PDE4Cat", "value": "< 1", "unit": "µM"}, {"measurement": "IC50", "setting": "IL-5", "value": "1 to 4", "unit": "µM"}, {"measurement": "inhibition of PDE5", "setting": "PDE5", "value": "does not significantly inhibit"}, {"measurement": "IC50", "setting": "IL-2", "value": "< 1", "unit": "µM"}, {"measurement": "IC50", "setting": "[5]; PBMC, LPS- and PHA-induced cytokine production by human PBMCs, read-out: IC50 IL-10 (Th2 cytokines)", "value": "< 1", "unit": "µM"}, {"measurement": "IL-10 inhibition, range in words", "setting": "[5]; PBMCs", "value": "low micromolar range"}, {"measurement": "IC50", "setting": "[6]; Homo sapiens, PBMCs stimulated with PHA, read-out: IL-2 secretion IC50", "value": 0.46, "unit": "µM"}, {"measurement": "IC50", "setting": "[6]; LPS- and PHA-induced cytokine production by human PBMCs, read-out: IC50 IL-2 (Th1 cytokines)", "value": "< 1", "unit": "µM"}, {"measurement": "mortality, clinical pathology, microscopic or macroscopic changes", "setting": "Sprague-Dawley rats", "value": "No mortality, adverse effects on clinical pathology, or microscopic or macroscopic changes were observed in any dose group"}, {"measurement": "IC50", "setting": "IFN-γ", "value": "< 1", "unit": "µM"}, {"measurement": "IC50", "setting": "[7]; Homo sapiens, PBMCs stimulated by LPS, read-out: TNF-α secretion IC50", "value": 0.77, "unit": "µM"}, {"measurement": "IC50", "setting": "[7]; LPS- and PHA-induced cytokine production by human PBMCs, read-out: IC50 TNFα (pro-inflammatory cytokines)", "value": "< 1", "unit": "µM"}, {"measurement": "inhibition of PDE1", "setting": "PDE1A3", "value": "does not significantly inhibit"}, {"measurement": "IC50", "setting": "PDE1A3; standard: 8-methoxymethyl-IBMX", "value": "1 to 10", "unit": "µM"}, {"measurement": "IC50", "setting": "[8]; PDE4 in human U937 cells, read-out: PDE4 enzyme activity IC50", "value": 0.49, "unit": "µM"}, {"measurement": "IC50", "setting": "[8]; biochemical assay, PDE4 enzyme derived from human U937 cells, read-out: PDE4 IC50", "value": 0.49, "unit": "µM"}, {"measurement": "mode of inhibition (enzyme kinetic analysis)", "setting": "[9]", "value": "competitive inhibitor"}]}
